From ChEMBL document CHEMBL5442219

How the values were obtained:
Settings in all cases: Compound concentration 10 µM
[1] = target: Sodium-dependent noradrenaline transporter (Homo sapiens) (UniProt P23975)
Description: PDSP Primary Binding target: SLC6A2 - Compounds are tested at 10 uM concentration, plate are incubated at room temperature in the dark for 90 minutes. Reaction are stopped by vacuum filtration onto 0.3% polyethyleneimine soaked filter mats using Filtermate harvester. Scintilation cocktail is then melted onto microwave-dried filters on a hot plate and the radio activity is counted in Microbia counter.

[2] = target: D(2) dopamine receptor (Homo sapiens) (UniProt P14416)
Description: PDSP Primary Binding target: DRD2 - Compounds are tested at 10 uM concentration, plate are incubated at room temperature in the dark for 90 minutes. Reaction are stopped by vacuum filtration onto 0.3% polyethyleneimine soaked filter mats using Filtermate harvester. Scintilation cocktail is then melted onto microwave-dried filters on a hot plate and the radio activity is counted in Microbia counter.

[3] = target: Sigma non-opioid intracellular receptor 1 (Homo sapiens) (UniProt Q99720)
Description: PDSP Primary Binding target: SIGMAR1 - Compounds are tested at 10 uM concentration, plate are incubated at room temperature in the dark for 90 minutes. Reaction are stopped by vacuum filtration onto 0.3% polyethyleneimine soaked filter mats using Filtermate harvester. Scintilation cocktail is then melted onto microwave-dried filters on a hot plate and the radio activity is counted in Microbia counter.

[4] = target: T1, Muscarinic acetylcholine receptor M5 (Homo sapiens) (UniProt P08912)
T1 sequence (whole entry): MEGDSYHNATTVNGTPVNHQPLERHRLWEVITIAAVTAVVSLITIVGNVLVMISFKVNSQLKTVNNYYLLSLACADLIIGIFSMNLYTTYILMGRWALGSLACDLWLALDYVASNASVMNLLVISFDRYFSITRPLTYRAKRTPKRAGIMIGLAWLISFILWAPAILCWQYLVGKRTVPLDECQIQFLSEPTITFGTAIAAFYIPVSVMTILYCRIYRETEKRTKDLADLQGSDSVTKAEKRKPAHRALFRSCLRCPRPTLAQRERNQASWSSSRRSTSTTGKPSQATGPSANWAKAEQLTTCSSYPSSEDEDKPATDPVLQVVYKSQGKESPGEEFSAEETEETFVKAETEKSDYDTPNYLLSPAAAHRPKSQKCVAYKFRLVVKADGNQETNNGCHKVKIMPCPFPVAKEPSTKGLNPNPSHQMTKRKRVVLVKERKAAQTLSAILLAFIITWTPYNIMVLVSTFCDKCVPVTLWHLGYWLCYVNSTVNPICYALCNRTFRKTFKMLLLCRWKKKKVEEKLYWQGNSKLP
Description: PDSP Primary Binding target: CHRM5 - Compounds are tested at 10 uM concentration, plate are incubated at room temperature in the dark for 90 minutes. Reaction are stopped by vacuum filtration onto 0.3% polyethyleneimine soaked filter mats using Filtermate harvester. Scintilation cocktail is then melted onto microwave-dried filters on a hot plate and the radio activity is counted in Microbia counter.

[5] = target: T2, Alpha-2C adrenergic receptor (Homo sapiens) (UniProt P18825)
T2 sequence (whole entry): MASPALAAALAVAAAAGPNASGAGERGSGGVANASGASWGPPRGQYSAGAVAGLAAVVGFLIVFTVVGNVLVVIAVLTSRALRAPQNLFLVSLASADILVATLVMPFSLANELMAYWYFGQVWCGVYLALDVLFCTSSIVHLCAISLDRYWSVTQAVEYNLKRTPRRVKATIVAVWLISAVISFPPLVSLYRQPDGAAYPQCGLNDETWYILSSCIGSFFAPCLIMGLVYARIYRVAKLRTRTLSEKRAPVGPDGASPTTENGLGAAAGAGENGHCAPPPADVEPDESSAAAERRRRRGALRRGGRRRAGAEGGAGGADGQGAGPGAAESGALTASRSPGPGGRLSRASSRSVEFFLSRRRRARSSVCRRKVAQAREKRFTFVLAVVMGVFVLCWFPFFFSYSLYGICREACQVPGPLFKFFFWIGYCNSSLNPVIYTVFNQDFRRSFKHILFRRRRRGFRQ
Description: PDSP Primary Binding target: ADRA2C - Compounds are tested at 10 uM concentration, plate are incubated at room temperature in the dark for 90 minutes. Reaction are stopped by vacuum filtration onto 0.3% polyethyleneimine soaked filter mats using Filtermate harvester. Scintilation cocktail is then melted onto microwave-dried filters on a hot plate and the radio activity is counted in Microbia counter.

[6] = target: T3, Alpha-2B adrenergic receptor (Homo sapiens) (UniProt P18089)
T3 sequence (whole entry): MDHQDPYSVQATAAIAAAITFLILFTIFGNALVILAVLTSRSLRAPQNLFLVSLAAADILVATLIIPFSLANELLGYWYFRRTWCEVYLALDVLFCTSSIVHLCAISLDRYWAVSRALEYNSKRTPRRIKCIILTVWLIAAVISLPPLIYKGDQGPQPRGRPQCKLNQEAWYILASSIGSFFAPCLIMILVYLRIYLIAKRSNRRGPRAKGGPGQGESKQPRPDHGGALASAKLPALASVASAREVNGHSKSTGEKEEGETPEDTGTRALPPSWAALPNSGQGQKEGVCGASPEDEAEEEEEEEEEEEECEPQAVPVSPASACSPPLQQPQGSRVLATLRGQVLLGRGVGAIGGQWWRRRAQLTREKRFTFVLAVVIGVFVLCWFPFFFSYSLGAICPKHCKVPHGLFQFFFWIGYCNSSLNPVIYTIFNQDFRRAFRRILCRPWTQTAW
Description: PDSP Primary Binding target: ADRA2B - Compounds are tested at 10 uM concentration, plate are incubated at room temperature in the dark for 90 minutes. Reaction are stopped by vacuum filtration onto 0.3% polyethyleneimine soaked filter mats using Filtermate harvester. Scintilation cocktail is then melted onto microwave-dried filters on a hot plate and the radio activity is counted in Microbia counter.

[7] = target: T4, Alpha-1D adrenergic receptor (Homo sapiens) (UniProt P25100)
T4 sequence (whole entry): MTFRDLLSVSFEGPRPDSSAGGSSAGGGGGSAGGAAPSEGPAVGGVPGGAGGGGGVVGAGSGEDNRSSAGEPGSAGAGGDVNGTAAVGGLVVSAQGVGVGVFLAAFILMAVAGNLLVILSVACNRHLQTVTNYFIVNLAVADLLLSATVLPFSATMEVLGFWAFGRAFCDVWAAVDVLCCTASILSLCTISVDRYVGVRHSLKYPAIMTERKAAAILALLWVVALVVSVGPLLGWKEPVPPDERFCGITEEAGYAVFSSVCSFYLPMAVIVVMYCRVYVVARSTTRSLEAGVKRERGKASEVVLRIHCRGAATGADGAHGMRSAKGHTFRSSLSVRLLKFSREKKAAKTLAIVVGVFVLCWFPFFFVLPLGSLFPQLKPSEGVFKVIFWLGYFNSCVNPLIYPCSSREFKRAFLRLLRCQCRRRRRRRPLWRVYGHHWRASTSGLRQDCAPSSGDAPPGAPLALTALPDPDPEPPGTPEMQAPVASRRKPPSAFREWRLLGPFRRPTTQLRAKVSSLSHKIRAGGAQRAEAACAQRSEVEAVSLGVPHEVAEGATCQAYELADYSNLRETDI
Description: PDSP Primary Binding target: ADRA1D - Compounds are tested at 10 uM concentration, plate are incubated at room temperature in the dark for 90 minutes. Reaction are stopped by vacuum filtration onto 0.3% polyethyleneimine soaked filter mats using Filtermate harvester. Scintilation cocktail is then melted onto microwave-dried filters on a hot plate and the radio activity is counted in Microbia counter.

[8] = target: 5-hydroxytryptamine receptor 1B (Homo sapiens) (UniProt P28222)
Sequence of 5-hydroxytryptamine receptor 1B (Homo sapiens) (P28222 whole entry): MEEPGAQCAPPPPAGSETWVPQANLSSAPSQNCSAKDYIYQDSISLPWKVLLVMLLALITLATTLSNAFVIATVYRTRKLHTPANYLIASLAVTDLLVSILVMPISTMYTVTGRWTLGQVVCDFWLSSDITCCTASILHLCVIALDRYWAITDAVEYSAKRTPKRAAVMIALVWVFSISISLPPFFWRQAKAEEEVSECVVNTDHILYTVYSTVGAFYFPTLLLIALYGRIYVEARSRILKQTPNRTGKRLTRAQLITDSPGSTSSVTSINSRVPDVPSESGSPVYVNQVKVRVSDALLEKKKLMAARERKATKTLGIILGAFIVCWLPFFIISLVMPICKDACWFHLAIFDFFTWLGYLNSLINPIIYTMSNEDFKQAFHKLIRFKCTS
Description: PDSP Primary Binding target: HTR1B - Compounds are tested at 10 uM concentration, plate are incubated at room temperature in the dark for 90 minutes. Reaction are stopped by vacuum filtration onto 0.3% polyethyleneimine soaked filter mats using Filtermate harvester. Scintilation cocktail is then melted onto microwave-dried filters on a hot plate and the radio activity is counted in Microbia counter.

[9] = target: 5-hydroxytryptamine receptor 1E (Homo sapiens) (UniProt P28566)
Sequence of 5-hydroxytryptamine receptor 1E (Homo sapiens) (P28566 whole entry): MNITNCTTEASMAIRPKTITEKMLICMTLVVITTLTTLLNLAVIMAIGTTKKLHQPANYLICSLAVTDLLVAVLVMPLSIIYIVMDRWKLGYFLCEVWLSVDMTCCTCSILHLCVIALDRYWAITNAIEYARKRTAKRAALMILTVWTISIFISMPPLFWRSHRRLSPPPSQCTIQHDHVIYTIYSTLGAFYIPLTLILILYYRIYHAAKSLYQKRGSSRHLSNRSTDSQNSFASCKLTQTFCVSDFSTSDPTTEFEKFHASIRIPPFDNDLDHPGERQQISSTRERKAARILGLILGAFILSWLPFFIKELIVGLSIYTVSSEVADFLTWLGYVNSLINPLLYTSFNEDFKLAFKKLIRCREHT
Description: PDSP Primary Binding target: HTR1E - Compounds are tested at 10 uM concentration, plate are incubated at room temperature in the dark for 90 minutes. Reaction are stopped by vacuum filtration onto 0.3% polyethyleneimine soaked filter mats using Filtermate harvester. Scintilation cocktail is then melted onto microwave-dried filters on a hot plate and the radio activity is counted in Microbia counter.

[10] = target: T5, Alpha-2A adrenergic receptor (Homo sapiens) (UniProt P08913)
T5 sequence (whole entry): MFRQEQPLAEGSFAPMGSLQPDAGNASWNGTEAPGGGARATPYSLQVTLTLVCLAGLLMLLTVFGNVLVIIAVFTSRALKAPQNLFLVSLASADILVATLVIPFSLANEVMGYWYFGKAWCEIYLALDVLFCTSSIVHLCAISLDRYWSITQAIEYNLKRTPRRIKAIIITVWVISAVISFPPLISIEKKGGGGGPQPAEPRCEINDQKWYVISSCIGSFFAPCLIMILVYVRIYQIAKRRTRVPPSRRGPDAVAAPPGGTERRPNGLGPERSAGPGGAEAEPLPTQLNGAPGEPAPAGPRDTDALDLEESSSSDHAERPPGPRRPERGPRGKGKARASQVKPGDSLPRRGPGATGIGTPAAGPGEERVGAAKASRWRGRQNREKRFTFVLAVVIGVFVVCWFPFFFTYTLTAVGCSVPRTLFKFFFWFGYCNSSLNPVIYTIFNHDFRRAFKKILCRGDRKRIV
Description: PDSP Primary Binding target: ADRA2A - Compounds are tested at 10 uM concentration, plate are incubated at room temperature in the dark for 90 minutes. Reaction are stopped by vacuum filtration onto 0.3% polyethyleneimine soaked filter mats using Filtermate harvester. Scintilation cocktail is then melted onto microwave-dried filters on a hot plate and the radio activity is counted in Microbia counter.

[11] = target: Beta-2 adrenergic receptor (Homo sapiens) (UniProt P07550)
Sequence of Beta-2 adrenergic receptor (Homo sapiens) (P07550 whole entry, looked up): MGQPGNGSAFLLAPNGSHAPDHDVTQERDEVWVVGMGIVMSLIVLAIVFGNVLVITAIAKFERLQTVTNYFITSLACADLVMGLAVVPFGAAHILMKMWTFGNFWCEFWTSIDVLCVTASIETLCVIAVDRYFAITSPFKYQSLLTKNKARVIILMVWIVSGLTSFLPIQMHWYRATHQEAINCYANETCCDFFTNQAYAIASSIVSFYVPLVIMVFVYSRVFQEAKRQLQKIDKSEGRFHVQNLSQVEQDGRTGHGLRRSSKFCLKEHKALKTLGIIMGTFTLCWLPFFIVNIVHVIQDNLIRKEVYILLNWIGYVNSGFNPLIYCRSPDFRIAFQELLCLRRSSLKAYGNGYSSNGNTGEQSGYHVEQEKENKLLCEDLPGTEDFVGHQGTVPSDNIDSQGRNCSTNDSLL
Description: PDSP Primary Binding target: ADRB2 - Compounds are tested at 10 uM concentration, plate are incubated at room temperature in the dark for 90 minutes. Reaction are stopped by vacuum filtration onto 0.3% polyethyleneimine soaked filter mats using Filtermate harvester. Scintilation cocktail is then melted onto microwave-dried filters on a hot plate and the radio activity is counted in Microbia counter.

[12] = target: 5-hydroxytryptamine receptor 7 (Homo sapiens) (UniProt P34969)
Sequence of 5-hydroxytryptamine receptor 7 (Homo sapiens) (P34969 whole entry): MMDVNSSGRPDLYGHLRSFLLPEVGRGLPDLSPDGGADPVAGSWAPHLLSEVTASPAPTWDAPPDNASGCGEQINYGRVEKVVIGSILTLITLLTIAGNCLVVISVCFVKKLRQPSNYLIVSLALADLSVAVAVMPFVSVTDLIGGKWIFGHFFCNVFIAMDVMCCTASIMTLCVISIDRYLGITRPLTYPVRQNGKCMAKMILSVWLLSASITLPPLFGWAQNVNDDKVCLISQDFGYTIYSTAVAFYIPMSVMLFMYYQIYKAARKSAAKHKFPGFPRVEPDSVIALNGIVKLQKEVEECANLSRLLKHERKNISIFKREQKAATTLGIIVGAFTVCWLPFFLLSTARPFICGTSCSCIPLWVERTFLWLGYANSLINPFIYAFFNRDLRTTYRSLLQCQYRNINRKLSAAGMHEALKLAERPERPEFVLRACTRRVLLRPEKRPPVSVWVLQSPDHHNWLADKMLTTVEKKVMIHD
Description: PDSP Primary Binding target: HTR7 - Compounds are tested at 10 uM concentration, plate are incubated at room temperature in the dark for 90 minutes. Reaction are stopped by vacuum filtration onto 0.3% polyethyleneimine soaked filter mats using Filtermate harvester. Scintilation cocktail is then melted onto microwave-dried filters on a hot plate and the radio activity is counted in Microbia counter.

Sequence of Sodium-dependent noradrenaline transporter (Homo sapiens) (P23975 whole entry): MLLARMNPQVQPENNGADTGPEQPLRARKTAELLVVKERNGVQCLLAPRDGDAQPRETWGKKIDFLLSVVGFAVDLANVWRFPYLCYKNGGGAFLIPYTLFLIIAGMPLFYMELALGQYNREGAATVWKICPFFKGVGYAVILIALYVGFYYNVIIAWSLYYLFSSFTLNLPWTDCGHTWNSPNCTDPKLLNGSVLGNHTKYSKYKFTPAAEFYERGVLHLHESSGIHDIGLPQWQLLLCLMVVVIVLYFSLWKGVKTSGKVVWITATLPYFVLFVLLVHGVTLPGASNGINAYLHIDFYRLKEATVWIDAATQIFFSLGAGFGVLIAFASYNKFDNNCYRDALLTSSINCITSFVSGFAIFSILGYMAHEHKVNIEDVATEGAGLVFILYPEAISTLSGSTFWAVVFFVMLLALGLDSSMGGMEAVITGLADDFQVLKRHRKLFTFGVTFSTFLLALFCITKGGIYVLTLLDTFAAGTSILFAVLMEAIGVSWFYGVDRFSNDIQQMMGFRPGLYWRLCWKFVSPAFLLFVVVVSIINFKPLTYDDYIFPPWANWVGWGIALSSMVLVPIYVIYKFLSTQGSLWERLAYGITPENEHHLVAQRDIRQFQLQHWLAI
Sequence of D(2) dopamine receptor (Homo sapiens) (P14416 whole entry): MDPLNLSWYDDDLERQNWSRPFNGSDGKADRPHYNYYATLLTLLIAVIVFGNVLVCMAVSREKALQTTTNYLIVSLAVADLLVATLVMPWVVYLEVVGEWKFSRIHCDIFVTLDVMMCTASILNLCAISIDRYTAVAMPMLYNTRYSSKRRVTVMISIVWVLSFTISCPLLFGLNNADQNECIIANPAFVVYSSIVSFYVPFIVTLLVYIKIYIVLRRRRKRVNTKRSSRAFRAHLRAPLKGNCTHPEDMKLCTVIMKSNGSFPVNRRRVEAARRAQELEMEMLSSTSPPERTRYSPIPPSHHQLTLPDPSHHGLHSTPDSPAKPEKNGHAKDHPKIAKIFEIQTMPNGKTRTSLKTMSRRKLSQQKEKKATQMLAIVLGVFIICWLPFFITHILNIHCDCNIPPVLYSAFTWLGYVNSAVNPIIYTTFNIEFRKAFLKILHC
Sequence of Sigma non-opioid intracellular receptor 1 (Homo sapiens) (Q99720 whole entry): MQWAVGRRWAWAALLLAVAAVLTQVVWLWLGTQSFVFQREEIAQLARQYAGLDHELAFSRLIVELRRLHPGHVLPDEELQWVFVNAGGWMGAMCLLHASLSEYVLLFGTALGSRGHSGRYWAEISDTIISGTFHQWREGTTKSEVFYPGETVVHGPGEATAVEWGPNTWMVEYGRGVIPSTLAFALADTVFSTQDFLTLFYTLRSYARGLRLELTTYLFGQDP

| Compound | inhibition [1] | inhibition [2] | inhibition [3] | inhibition [4] | inhibition [5] | inhibition [6] | inhibition [7] | inhibition [8] | inhibition [9] | inhibition [10] | inhibition [11] | inhibition [12] |
| --- | --- | --- | --- | --- | --- | --- | --- | --- | --- | --- | --- | --- |
| CC(C)NCC(O)COc1ccc(CCOCC2CC2)cc1 (centres undefined) | 45.1% | 3.26% | 91.7% | 0.46% | 2.92% | 24.5% | 5.75% | 10.4% | 5.21% | 20.5% | – | – |
| C/C(=N\NC(=O)[C@@H]1C(=O)NC[C@H]1c1ccccc1)c1cccc(Br)c1 | 11.2% | 7.24% | 21.3% | – | -7.78% | -7.62% | -1.53% | 3.07% | – | – | -2.57% | 8.23% |
| CCCCCCCCCCCCCCCCOC[C@H](COP(=O)([O-])OCC[N+](C)(C)C)OC(C)=O | – | 7.75% | 7.97% | – | 3.24% | 68.8% | 50.7% | 13.9% | 11.7% | – | – | -1.59% |
| O=C(Cc1ccccc1)Nc1nc2ccc(Cl)cc2c2nc(-c3ccco3)nn12 | -6.09% | 1.93% | -4.19% | -3.93% | 9.95% | 4.67% | -5.53% | – | 7.51% | 3.62% | 2.33% | – |
| COc1ccc(S(=O)(=O)c2cc(OC)ccc2S(=O)(=O)c2ccc([C@H](C)NS(C)(=O)=O)cc2)cc1 | -0.68% | 1.18% | 23.1% | -5.9% | 7.85% | 0.09% | – | -1.73% | -6.16% | -4.09% | -1.6% | – |
| CCN(CC)CCCCC1CCN(CC(=O)N2c3ccccc3C(=O)Nc3cccnc32)CC1 | 15.3% | 2.83% | – | 72.4% | -6.76% | -3.71% | -4.13% | 14.9% | – | 12.9% | 5.55% | – |
| COc1ccc(S(=O)(=O)N2c3ccc(Cl)cc3[C@](O)(c3ccccc3Cl)[C@@H]2C(=O)N2CCC[C@H]2C(N)=O)cc1OC | 2.92% | 11.8% | 16.4% | 7.17% | -3.82% | 0.34% | 10.8% | – | – | 12.7% | 6.53% | – |
| CCCn1c(=O)c2[nH]c(-c3cnn(Cc4cccc(C(F)(F)F)c4)c3)nc2n(CC)c1=O | 25.1% | 32.5% | 43.2% | -2.1% | -0.44% | 11% | – | 13.9% | -4% | 10.9% | -2.75% | – |
| C[C@H](CO)Nc1nc(SCc2cccc(Cl)c2F)nc2[nH]c(=O)sc12 | – | -1.75% | 15.8% | – | – | – | – | – | -4.99% | – | 8.37% | -7.53% |
| Oc1ccc2c3c1O[C@H]1c4[nH]c5c(c4C[C@@]4(O)[C@@H](C2)N(CC2CC2)CC[C@]314)C[C@@]1(O)[C@H]2Cc3ccc(O)c4c3[C@@]1(CCN2CC1CC1)[C@H]5O4 | 12.7% | 1.13% | 9.49% | -0.25% | 15.5% | 8.68% | 4.88% | 13.6% | – | 6.23% | -6.53% | – |
| COc1ccc(Br)cc1S(=O)(=O)NC(=O)/C=C/c1ccccc1Cc1ccc2ccccc2c1 | -0.94% | 29.3% | 11% | 16.9% | 18.6% | -4.1% | 16.2% | 3.55% | 1.84% | – | -2.54% | – |
| C[C@@H](NCCc1ccc(O)cc1)[C@@H](O)c1ccc(O)cc1 (relative stereo) | 51.8% | 23.8% | 75% | -3.49% | 23.6% | 5.66% | 0.11% | 2.73% | -0.11% | -0.38% | 36.5% | – |
| CSc1ccc(C(=O)N[C@@H]2CCCC[C@@H]2NC(=O)CNC(=O)c2cc(C(F)(F)F)ccc2NC(=O)NC(C)C)cc1 | – | 45.7% | 22.2% | – | – | 10.8% | – | – | -4.02% | -2.26% | 6.71% | 2.72% |
| Cc1csc2c(N[C@@H](C)CN3CCN(S(=O)(=O)c4ccc(Cl)c(Cl)c4)CC3)ncnc12 | -2.51% | 32.8% | 86% | -7.08% | 14.6% | -6.72% | -3.91% | -1.11% | -3.07% | -8.93% | 1.66% | – |
| CC(C)(N)C(=O)N[C@H](COCc1ccccc1)C(=O)N1CCC2(CC1)CN(S(C)(=O)=O)c1ccccc12 | -2.84% | 22.7% | 16.4% | 5.22% | 3.03% | -5.98% | 9.82% | – | 14.1% | 10.4% | -3.52% | – |
| COc1cc2c(CCNC(C)=O)c[nH]c2cc1Cl | – | -7.31% | 5.27% | – | -1.89% | 9.08% | 6.2% | 25.2% | 16.3% | 13.4% | 3.89% | -0.31% |
